Calls of active or inactive are those of the source. No cut-off for these calls is given here.
How the values were obtained:
[1] = system: Zymoseptoria tritici (Septoria tritici); assay: Antifungal activity against Septoria tritici at 2 mg/ml by agar diffusion test; settings: read-out: DIZ
[2] = system: Escherichia coli; assay: Antibacterial activity against Escherichia coli at 2 mg/ml by agar diffusion test; assay type: functional; settings: read-out: DIZ
[3] = system: Priestia megaterium; assay: Antibacterial activity against Bacillus megaterium at 2 mg/ml by agar diffusion test; assay type: functional, organism-based
[4] = system: A549; assay: Cytotoxicity against human A549 cells by MTT assay; assay type: functional, cell-based
[5] = system: Microbotryum violaceum; assay: Antifungal activity against Microbotryum violaceum at 2 mg/ml by agar diffusion test; assay type: functional; settings: read-out: DIZ
[6] = system: MG-63; assay: Cytotoxicity against human MG63 cells by MTT assay; assay type: functional, cell-based
[7] = system: Escherichia coli; assay: Antibacterial activity against Escherichia coli at 0.05 mg by agar diffusion test; assay type: functional; settings: read-out: DIZ
[8] = system: Priestia megaterium; assay: Antibacterial activity against Bacillus megaterium at 0.05 mg by agar diffusion test; assay type: functional; settings: read-out: DIZ
[9] = system: Microbotryum violaceum; assay: Antifungal activity against Microbotryum violaceum at 0.05 mg by agar diffusion test; assay type: functional; settings: read-out: DIZ
[10] = system: Zymoseptoria tritici; assay: Antifungal activity against Septoria tritici at 0.05 mg by agar diffusion test; settings: read-out: DIZ

Structure (SMILES)	zone of inhibition at 2000 µg/mL [1] [mm]	zone of inhibition at 2000 µg/mL [2] [mm]	Activity [3]	IC50 [4] [µM]	zone of inhibition at 2000 µg/mL [5] [mm]	IC50 [6] [µM]	zone of inhibition at 50 µg/disc [7] [mm]	zone of inhibition at 50 µg/disc [8] [mm]	zone of inhibition at 50 µg/disc [9] [mm]	zone of inhibition at 50 µg/disc [10] [mm]
C=C1[C@H](OC(C)=O)C[C@H](OC(C)=O)[C@@]2(C)[C@@H](OC(C)=O)C[C@@H](OC(C)=O)[C@]3(CO3)[C@@H]2[C@H](OC(C)=O)[C@]2(O)[C@@H](C)C(=O)O[C@H]2[C@H]1Cl (relative stereo)	13	20	inactive	< 1.5	11	20.5	–	–	–	–
CC(=O)N1CCN(c2ccc(OCC3COC(Cn4ccnc4)(c4ccc(Cl)cc4Cl)O3)cc2)CC1 (stereo unspecified) [KETOCONAZOLE]	–	–	–	–	–	–	18	18	30	25
C=C1CC[C@H](OC(C)=O)[C@@]2(C)[C@@H](OC(C)=O)C[C@@H](OC(=O)CC(C)C)[C@]3(CO3)[C@@H]2[C@H](OC(C)=O)[C@]2(O)[C@@H](C)C(=O)O[C@H]2[C@H]1Cl [JUNCENOLIDE J]	12	11	inactive	> 46.7	10	> 46.7	–	–	–	–
CC1(C)S[C@@H]2[C@H](NC(=O)Cc3ccccc3)C(=O)N2[C@H]1C(=O)O [PENICILLIN G]	–	–	–	–	–	–	26	18	14	12
CN[C@@H]1[C@H](O[C@H]2[C@H](O[C@H]3[C@H](O)[C@@H](O)[C@H](N=C(N)N)[C@@H](O)[C@@H]3N=C(N)N)O[C@@H](C)[C@]2(O)C=O)O[C@@H](CO)[C@H](O)[C@H]1O [STREPTOMYCIN]	–	–	–	–	–	–	18	11	16	11
C=C1[C@H](OC(C)=O)C[C@H](OC(C)=O)[C@@]2(C)[C@@H](OC(=O)CC(C)C)C[C@@H](OC(C)=O)[C@]3(CO3)[C@@H]2[C@H](OC(C)=O)[C@]2(O)[C@@H](C)C(=O)O[C@H]2[C@H]1Cl (relative stereo)	9.5	20	inactive	18	9.5	15.1	–	–	–	–
C=C1[C@H](Cl)[C@@H]2OC(=O)[C@H](C)[C@]23O[C@@H]1[C@H](OC(C)=O)[C@H](OC(C)=O)[C@@]1(C)[C@@H](OC(C)=O)CC[C@]2(CO2)[C@@H]1[C@@H]3OC(C)=O [PRAELOLIDE]	15	18	inactive	> 50.1	11	> 50.1	–	–	–	–
COc1cccc2c1C(=O)c1c(O)c3c(c(O)c1C2=O)C[C@@](O)(C(=O)CO)C[C@@H]3O[C@H]1C[C@H](N)[C@H](O)[C@H](C)O1 [DOXORUBICIN]	–	–	–	–	–	3.2	–	–	–	–
C=C1[C@H]2O[C@]3([C@@H](C)C(=O)O[C@H]3[C@H]1Cl)[C@@H](OC(C)=O)[C@H]1[C@@]3(CO3)[C@H](OC(C)=O)C[C@H](OC(C)=O)[C@]1(C)[C@@H](OC(C)=O)[C@H]2OC(C)=O (relative stereo)	12	20	inactive	> 45.7	15	> 45.7	–	–	–	–
C=C1[C@H](OC(=O)CC(C)C)C[C@H](OC(C)=O)[C@@]2(C)[C@@H](OC(C)=O)[C@@H](OC(=O)CC(C)C)[C@@H](OC(C)=O)[C@]3(CO3)[C@@H]2[C@H](OC(C)=O)[C@]2(O)[C@@H](C)C(=O)O[C@H]2[C@H]1Cl (relative stereo)	17	17	inactive	19.1	13	17.4	–	–	–	–
C=C1[C@H](OC(C)=O)C[C@H](OC(C)=O)[C@@]2(C)[C@@H](OC(C)=O)C[C@@H](OC(=O)CC(C)C)[C@]3(CO3)[C@@H]2[C@H](OC(C)=O)[C@]2(O)[C@@H](C)C(=O)O[C@H]2[C@H]1Cl (relative stereo)	14	19	inactive	16.9	14	18	–	–	–	–
C=C1[C@H]2O[C@]3([C@@H](C)C(=O)O[C@H]3[C@H]1Cl)[C@@H](OC(C)=O)[C@H]1[C@@]3(CO3)[C@H](OC(=O)CC(C)C)C[C@H](OC(C)=O)[C@]1(C)[C@@H](OC(C)=O)[C@H]2OC(C)=O (relative stereo)	13	34	inactive	< 0.3	11	< 0.3	–	–	–	–

From ChEMBL document CHEMBL2040764, “Bioactive briarane diterpenoids from the South China Sea gorgonian Dichotella gemmacea” (Bioorg Med Chem Lett, 2012)
